Source: patent publication US11912718B2, “Solid forms of a thienopyrimidinedione ACC inhibitor and methods for production thereof” (Gilead Apollo, LLC, priority 2016, dated 2024)

Key:
[1] = Study B: multiple oral dose pharmacokinetics, 10 days; assay type: in vivo, human; details: for AUC(0-inf) / Cmax / half-life / Tmax / AUC(0-t): human, in vivo, oral
Experimental: Study B (five (5) cohorts of 8 subjects (6 active and 2 placebo)) evaluated 50 mg twice daily (BID) (100 mg daily), 100 mg once daily (QD) (100 mg daily), 100 mg BID (200 mg daily), 200 mg QD (200 mg daily), or 150 mg QD (150 mg daily), or matching placebo. Subjects received multiple oral doses of Compound 1 or placebo for 9 consecutive days, with a single oral dose of Compound 1 or placebo on the morning of Day 10. Doses were administered approximately 30 minutes after meals.
Table 13 summarizes PK parameters of Study B after 10 days. The reported factors may vary up to about 2%.

[2] = Study A: single oral dose pharmacokinetics in healthy subjects; assay type: in vivo, human; details: for AUC(0-t) / Tmax / AUC(0-inf) / Cmax / half-life: human, plasma, fasted; for AUC(0-t): po; for AUC(0-t) / AUC(0-inf) / Cmax / half-life: mean ± SD; for Tmax: Mean (Min, Max)
Experimental: Study A evaluated the safety and tolerability of 30, 80, 200, 500, 800, and 1000 mg in the fasted state and 200 mg following a high fat meal (fed state) to cohorts of 8 healthy subjects (6 active and 2 placebo control per group).
Table 12 summarizes PK parameters (mean) under fasted conditions of Study A. The reported factors may vary up to about 2%.

[3] = 100 mg, 100 mg BID, Day 1, value available for one subject

AUC(0-inf) ([1]; 50 mg, 50 mg BID, Day 1): 178 ± 41 ng·h/mL | Cmax ([1]; 50 mg, 50 mg BID, Day 1): 41 ± 14 ng/mL | half-life ([1]; 50 mg, 50 mg BID, Day 1): 3.5 ± 1.6 h | Tmax ([1]; 50 mg, 50 mg BID, Day 1, Mean (Min, Max)): 2.4 h | AUC(0-t) ([1]; 50 mg, 50 mg BID, Day 1, read-out: AUC0-12): 143 ± 29 ng·h/mL | AUC(0-t) ([1]; 50 mg, 50 mg BID, Day 1, read-out: AUC0-t): 143 ± 29 ng·h/mL | half-life ([1]; 50 mg, 50 mg BID, Day 10): 10.3 ± 6.7 h | AUC(0-t) ([1]; 50 mg, 50 mg BID, Day 10, read-out: AUC0-t): 403 ± 104 ng·h/mL | Cmax ([1]; 50 mg, 50 mg BID, Day 10 steady state): 49 ± 15 ng/mL | Tmax ([1]; 50 mg, 50 mg BID, Day 10 steady state, Mean (Min, Max)): 4.5 h | Cmax ([1]; 100 mg, 100 mg BID, Day 1): 61.6 ± 15 ng/mL | Tmax ([1]; 100 mg, 100 mg BID, Day 1, Mean (Min, Max)): 5.2 h | AUC(0-t) ([1]; 100 mg, 100 mg BID, Day 1, read-out: AUC0-12): 345 ± 78 ng·h/mL | AUC(0-t) ([1]; 100 mg, 100 mg BID, Day 1, read-out: AUC0-t): 345 ± 77 ng·h/mL | AUC(0-inf) [1, 3]: 671 ng·h/mL | half-life [1, 3]: 5.6 h | half-life ([1]; 100 mg, 100 mg BID, Day 10): 6.8 ± 1.6 h | AUC(0-t) ([1]; 100 mg, 100 mg BID, Day 10, read-out: AUC0-t): 1120 ± 362 ng·h/mL | Cmax ([1]; 100 mg, 100 mg BID, Day 10 steady state): 121 ± 56 ng/mL | Tmax ([1]; 100 mg, 100 mg BID, Day 10 steady state, Mean (Min, Max)): 5.2 h | AUC(0-inf) ([1]; 100 mg, 100 mg QD, Day 1): 278 ± 110 ng·h/mL | Cmax ([1]; 100 mg, 100 mg QD, Day 1): 65 ± 32 ng/mL | half-life ([1]; 100 mg, 100 mg QD, Day 1): 4.3 ± 0.7 h | AUC(0-t) ([1]; 100 mg, 100 mg QD, Day 1, read-out: AUC0-12): 234 ± 86 ng·h/mL | AUC(0-t) ([1]; 100 mg, 100 mg QD, Day 1, read-out: AUC0-t): 268 ± 96 ng·h/mL | half-life ([1]; 100 mg, 100 mg QD, Day 10): 7.9 ± 4.5 h | AUC(0-t) ([1]; 100 mg, 100 mg QD, Day 10, read-out: AUC0-12): 285 ± 115 ng·h/mL | AUC(0-t) ([1]; 100 mg, 100 mg QD, Day 10, read-out: AUC0-t): 400 ± 181 ng·h/mL | Cmax ([1]; 100 mg, 100 mg QD, Day 10 steady state): 54 ± 22 ng/mL | Tmax ([1]; 100 mg, 100 mg QD, Day 10 steady state, Mean (Min, Max)): 4.5 h | AUC(0-inf) ([1]; 150 mg, 150 mg QD, Day 1): 587 ± 254 ng·h/mL | Cmax ([1]; 150 mg, 150 mg QD, Day 1): 94 ± 40 ng/mL | half-life ([1]; 150 mg, 150 mg QD, Day 1): 3.9 ± 1.1 h | Tmax ([1]; 150 mg, 150 mg QD, Day 1, Mean (Min, Max)): 3.3 h | AUC(0-t) ([1]; 150 mg, 150 mg QD, Day 1, read-out: AUC0-12): 489 ± 218 ng·h/mL | AUC(0-t) ([1]; 150 mg, 150 mg QD, Day 1, read-out: AUC0-t): 572 ± 247 ng·h/mL | half-life ([1]; 150 mg, 150 mg QD, Day 10): 6.6 ± 2.8 h | AUC(0-t) ([1]; 150 mg, 150 mg QD, Day 10, read-out: AUC0-12): 637 ± 246 ng·h/mL | AUC(0-t) ([1]; 150 mg, 150 mg QD, Day 10, read-out: AUC0-t): 933 ± 424 ng·h/mL | Cmax ([1]; 150 mg, 150 mg QD, Day 10 steady state): 111 ± 52 ng/mL | Tmax ([1]; 150 mg, 150 mg QD, Day 10 steady state, Mean (Min, Max)): 6.5 h | AUC(0-inf) ([1]; 200 mg, 200 mg QD, Day 1): 979 ± 286 ng·h/mL | Cmax ([1]; 200 mg, 200 mg QD, Day 1): 152 ± 68 ng/mL | half-life ([1]; 200 mg, 200 mg QD, Day 1): 5.9 ± 3.6 h | Tmax ([1]; 200 mg, 200 mg QD, Day 1, Mean (Min, Max)): 4.7 h | AUC(0-t) ([1]; 200 mg, 200 mg QD, Day 1, read-out: AUC0-12): 707 ± 191 ng·h/mL | AUC(0-t) ([1]; 200 mg, 200 mg QD, Day 1, read-out: AUC0-t): 868 ± 220 ng·h/mL | half-life ([1]; 200 mg, 200 mg QD, Day 10): 5.9 ± 1 h | AUC(0-t) ([1]; 200 mg, 200 mg QD, Day 10, read-out: AUC0-12): 1220 ± 362 ng·h/mL | AUC(0-t) ([1]; 200 mg, 200 mg QD, Day 10, read-out: AUC0-t): 2050 ± 819 ng·h/mL | Cmax ([1]; 200 mg, 200 mg QD, Day 10 steady state): 198 ± 87 ng/mL | Tmax ([1]; 200 mg, 200 mg QD, Day 10 steady state, Mean (Min, Max)): 3.7 h | change of maximal exposure (Cmax) from Day 1 to Day 10 ([1]; multiple dosing, all regimens): generally increased | increase of overall exposure (AUCt) on Day 10 compared to Day 1 ([1]; multiple dosing, all regimens): 1.5-3.0 fold | range of mean t1/2 independent of dose or regimen on each study day ([1]; multiple dosing, all regimens): ≤ 2 fold | maximum plasma exposure (Cmax) lower under fed compared to fasted conditions ([2]; 200 mg, fed (high fat meal) versus fasted): approximately 68% | mean t1/2, CL/F, Vz/F and median tmax, fed versus fasted ([2]; 200 mg, fed and fasted conditions): comparable | AUC(0-t) ([2]; 30 mg, single oral dose 30 mg, read-out: AUC0-t): 176 ± 104 ng·h/mL | AUC(0-t) ([2]; 80 mg, single oral dose 80 mg, read-out: AUC0-12): 395 ± 198 ng·h/mL | AUC(0-t) ([2]; 80 mg, single oral dose 80 mg, read-out: AUC0-t): 363 ± 215 ng·h/mL | AUC(0-t) ([2]; 200 mg, single oral dose 200 mg, read-out: AUC0-12): 1000 ± 545 ng·h/mL | AUC(0-t) ([2]; 200 mg, single oral dose 200 mg, read-out: AUC0-t): 1210 ± 536 ng·h/mL | AUC(0-t) ([2]; 500 mg, single oral dose 500 mg, read-out: AUC0-12): 1240 ± 547 ng·h/mL | AUC(0-t) ([2]; 500 mg, single oral dose 500 mg, read-out: AUC0-t): 2930 ± 2440 ng·h/mL | AUC(0-t) ([2]; 800 mg, single oral dose 800 mg, read-out: AUC0-t): 6420 ± 3180 ng·h/mL | AUC(0-t) ([2]; 1000 mg, single oral dose 1000 mg, read-out: AUC0-t): 17400 ± 8400 ng·h/mL | Tmax ([2]; single oral dose 30 mg): 1.3 h | AUC(0-inf) ([2]; single oral dose 30 mg): 179 ± 115 ng·h/mL | Cmax ([2]; single oral dose 30 mg): 80 ± 66 ng/mL | half-life ([2]; single oral dose 30 mg): 4.5 ± 1.6 h | Tmax ([2]; single oral dose 80 mg): 1.8 h | AUC(0-inf) ([2]; single oral dose 80 mg): 402 ± 225 ng·h/mL | Cmax ([2]; single oral dose 80 mg): 101 ± 48 ng/mL | half-life ([2]; single oral dose 80 mg): 7 ± 2.8 h | Tmax ([2]; single oral dose 200 mg): 1.9 h | AUC(0-inf) ([2]; single oral dose 200 mg): 1250 ± 616 ng·h/mL | Cmax ([2]; single oral dose 200 mg): 416 ± 22 ng/mL | half-life ([2]; single oral dose 200 mg): 12 ± 1.4 h | Tmax ([2]; single oral dose 500 mg): 1.9 h | AUC(0-inf) ([2]; single oral dose 500 mg): 2960 ± 2460 ng·h/mL | Cmax ([2]; single oral dose 500 mg): 1110 ± 1150 ng/mL | half-life ([2]; single oral dose 500 mg): 10.2 ± 2.1 h | Tmax ([2]; single oral dose 800 mg): 2.1 h | AUC(0-inf) ([2]; single oral dose 800 mg): 6460 ± 3190 ng·h/mL | Cmax ([2]; single oral dose 800 mg): 2570 ± 1880 ng/mL | half-life ([2]; single oral dose 800 mg): 8.2 ± 3.3 h | Tmax ([2]; single oral dose 1000 mg): 2.4 h | AUC(0-inf) ([2]; single oral dose 1000 mg): 17500 ± 8410 ng·h/mL | Cmax ([2]; single oral dose 1000 mg): 8380 ± 3210 ng/mL | half-life ([2]; single oral dose 1000 mg): 9.5 ± 2.6 h
SMILES: COc1ccccc1[C@H](Cn1c(=O)n(C(C)(C)C(=O)O)c(=O)c2c(C)c(-c3ncco3)sc21)OC1CCOCC1 [Compound 1, (R)-2-(1-(2-(2-methoxyphenyl)-2-((tetrahydro-2H-pyran-4-yl)oxy)ethyl)-5-methyl-6-(oxazol-2-yl)-2,4-dioxo-1,2-dihydrothieno[2,3-d]pyrimidin-3(4H)-yl)-2-methylpropanoic acid]
